{
  "source": "PubChem BioAssay AID272",
  "about": "(DTP/NCI, 2004)",
  "system": "Lewis lung carcinoma i.m., BDF1 mice, T/C %",
  "test": "NCI In Vivo Anticancer Drug Screen. Data for tumor model Lewis Lung Carcinoma (intramuscular) in B6D2F1 (BDF1) mice",
  "details": "schedule: Q01DX011 (ip)",
  "in_short": "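Value is the ratio of a treated-group measurement (T) to the matching vehicle-control measurement (C), using either survival or tumour size in mice bearing transplanted tumours.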",
  "key": {"[1]": {"details": "endpoint: mean tumor weight (est.), dose: 50.0 mg/kg/injection, vehicle: saline, higher = larger tumour"}, "[2]": {"details": "endpoint: median survival time, dose: 50.0 mg/kg/injection, vehicle: saline, higher = longer survival"}},
  "note": "Inconclusive results are not listed.",
  "data": [
    {"smiles": "COc1cc(C[C@H]2c3cc(OC)c(OC)cc3CCN2C)c(Oc2cc3c(cc2OC)-c2c(OC)c(OC)cc4c2[C@H](C3)N(C)CC4)cc1OC", "values": [
      {"measurement": "T/C", "setting": "endpoint: mean tumor weight, dose: 12.5 mg/kg/injection, vehicle: other, higher = larger tumour", "value": "104 % of control"},
      {"measurement": "T/C", "setting": "endpoint: mean tumor weight, dose: 25.0 mg/kg/injection, vehicle: other, higher = larger tumour", "value": "100 % of control"},
      {"measurement": "T/C", "setting": "endpoint: mean tumor weight, dose: 50.0 mg/kg/injection, vehicle: other, higher = larger tumour", "value": "93 % of control"},
      {"measurement": "T/C", "setting": "endpoint: median survival time, dose: 12.5 mg/kg/injection, vehicle: other, higher = longer survival", "value": "105 % of control"},
      {"measurement": "T/C", "setting": "endpoint: median survival time, dose: 25.0 mg/kg/injection, vehicle: other, higher = longer survival", "value": "108 % of control"},
      {"measurement": "T/C", "setting": "endpoint: median survival time, dose: 50.0 mg/kg/injection, vehicle: other, higher = longer survival", "value": "117 % of control"}
    ]},
    {"smiles": "NC1CONC1=O", "note": "(stereo unspecified)", "values": [
      {"measurement": "T/C", "setting": "[1]", "value": "95 % of control"},
      {"measurement": "T/C", "setting": "endpoint: mean tumor weight (est.), dose: 100.0 mg/kg/injection, vehicle: saline, higher = larger tumour", "value": "93 % of control"},
      {"measurement": "T/C", "setting": "endpoint: mean tumor weight (est.), dose: 200.0 mg/kg/injection, vehicle: saline, higher = larger tumour", "value": "84 % of control"},
      {"measurement": "T/C", "setting": "endpoint: mean tumor weight (est.), dose: 400.0 mg/kg/injection, vehicle: saline, higher = larger tumour", "value": "76 % of control"},
      {"measurement": "T/C", "setting": "[2]", "value": "94 % of control"},
      {"measurement": "T/C", "setting": "endpoint: median survival time, dose: 100.0 mg/kg/injection, vehicle: saline, higher = longer survival", "value": "106 % of control"},
      {"measurement": "T/C", "setting": "endpoint: median survival time, dose: 200.0 mg/kg/injection, vehicle: saline, higher = longer survival", "value": "106 % of control"},
      {"measurement": "T/C", "setting": "endpoint: median survival time, dose: 400.0 mg/kg/injection, vehicle: saline, higher = longer survival", "value": "124 % of control"}
    ]},
    {"smiles": "CNc1ccc(O)cc1", "values": [
      {"measurement": "T/C", "setting": "endpoint: mean tumor weight (est.), dose: 6.25 mg/kg/injection, vehicle: saline, higher = larger tumour", "value": "97 % of control"},
      {"measurement": "T/C", "setting": "endpoint: mean tumor weight (est.), dose: 12.5 mg/kg/injection, vehicle: saline, higher = larger tumour", "value": "97 % of control"},
      {"measurement": "T/C", "setting": "endpoint: mean tumor weight (est.), dose: 25.0 mg/kg/injection, vehicle: saline, higher = larger tumour", "value": "89 % of control"},
      {"measurement": "T/C", "setting": "[1]", "value": "82 % of control"},
      {"measurement": "T/C", "setting": "endpoint: median survival time, dose: 6.25 mg/kg/injection, vehicle: saline, higher = longer survival", "value": "101 % of control"},
      {"measurement": "T/C", "setting": "endpoint: median survival time, dose: 12.5 mg/kg/injection, vehicle: saline, higher = longer survival", "value": "105 % of control"},
      {"measurement": "T/C", "setting": "endpoint: median survival time, dose: 25.0 mg/kg/injection, vehicle: saline, higher = longer survival", "value": "100 % of control"},
      {"measurement": "T/C", "setting": "[2]", "value": "101 % of control"}
    ]},
    {"smiles": "N=c1ccn2c(n1)OC1C(O)C(CO)OC12", "note": "(stereo unspecified)", "values": [
      {"measurement": "T/C", "setting": "endpoint: mean tumor weight, dose: 200.0 mg/kg/injection, vehicle: water, higher = larger tumour", "value": "34 % of control"},
      {"measurement": "T/C", "setting": "endpoint: mean tumor weight, dose: 400.0 mg/kg/injection, vehicle: water, higher = larger tumour", "value": "64 % of control"},
      {"measurement": "T/C", "setting": "endpoint: median survival time, dose: 200.0 mg/kg/injection, vehicle: water, higher = longer survival", "value": "115 % of control"},
      {"measurement": "T/C", "setting": "endpoint: median survival time, dose: 400.0 mg/kg/injection, vehicle: water, higher = longer survival", "value": "124 % of control"}
    ]},
    {"smiles": "Cn1c(Cl)nc2c(Cl)nc(Cl)nc21", "values": [
      {"measurement": "T/C", "setting": "endpoint: median survival time, dose: 1.0 mg/kg/injection, vehicle: saline with Tween-80, higher = longer survival", "value": "102 % of control"},
      {"measurement": "T/C", "setting": "endpoint: median survival time, dose: 2.0 mg/kg/injection, vehicle: saline with Tween-80, higher = longer survival", "value": "106 % of control"},
      {"measurement": "T/C", "setting": "endpoint: median survival time, dose: 4.0 mg/kg/injection, vehicle: saline with Tween-80, higher = longer survival", "value": "102 % of control"},
      {"measurement": "T/C", "setting": "endpoint: median survival time, dose: 8.0 mg/kg/injection, vehicle: saline with Tween-80, higher = longer survival", "value": "104 % of control"},
      {"measurement": "T/C", "setting": "endpoint: median survival time, dose: 16.0 mg/kg/injection, vehicle: saline with Tween-80, higher = longer survival", "value": "110 % of control"}
    ]}
  ]
}
